{"source": "patent US20080003282A1", "about": "“Antiparasitical agents and methods for treating, preventing and controlling external parasites in animals” (priority 2005, published 2008)", "key": {"[1]": {"assay_type": "physicochemical", "procedure": "In Vitro Degradation Studies\nA solution containing thioamide derivative of fipronil (“TD-fipronil”) in a solution of CH3CN/H2O (50:50 v/v) and the solution was subjected to the following degradation agents: an acid (0.5 N HCl); a base (0.5 N NaOH); fluorescent light; heat (65° C.); an oxidizer (5% H2O2); and UV light. The identity of fipronil formed was confirmed via HPLC with UV detection and HPLC with diode array detection."}, "[2]": {"set-up": "species or system dogs", "conditions": "dog, po, 10 mg/kg", "procedure": "In Vivo Degradation Study—Oral Administration\nAn oral formulation (solution) comprising 100 mg/ml of thioamide derivatives of fipronil dissolved in 60:40 propylene glycol: glycerol formal was orally administered to dogs at a dosage rate of 10 mg/kg and the concentration of fipronil in blood plasma measured at 6 hours, day 1, day 2, and day 7 and is presented below"}}, "note": "Read-outs that look alike come from different tables or passages of the source."}
{"smiles": "NC(=S)c1nn(-c2c(Cl)cc(C(F)(F)F)cc2Cl)c(N)c1[S+]([O-])C(F)(F)F", "note": "(stereo not shown) [TD-fipronil]", "values": [{"measurement": "degradation product formed", "setting": "[1]", "value": "fipronil sulfone"}, {"measurement": "stability in acid", "setting": "[1]", "value": "stable in acid"}, {"measurement": "fipronil formed", "setting": "[1]; Acid (0.5 N HCl), 4 days", "value": "being degraded in 4 days; negligible amounts"}, {"measurement": "fipronil formed", "setting": "[1]; Base (0.5 N NaOH)", "value": "no fipronil was formed"}, {"measurement": "fipronil formed", "setting": "[1]; Oxidation (5% H2O2)", "value": "no fipronil was formed"}, {"measurement": "sensitivity to light", "setting": "[1]; UV light", "value": "very sensitive to light"}, {"measurement": "in vivo degradation into fipronil judged against efficacy", "setting": "[2]", "value": "degrades into fipronil in vivo in amounts that are sufficient for efficacy against fleas and ticks"}]}
